Experimental data as given in patent publication US20120058936A1, “COMPOSITIONS AND METHODS FOR ELIMINATION OF GRAM NEGATIVE BACTERIA” (ASSISTANCE PUBLIQUE - HOPITAUX DE PARIS, priority 2009, published 2012).
Entries after “also recorded” stand apart in the source; their conditions may differ.

Tests used:
erythrocyte = conditions: MIC for many bacteria; cited from earlier work
[1] = tested on: enterobacteria present in the colon; conditions: oral treatment; azithromycin daily dose of 500 mg; cited from earlier work
[2] = BioDis (USP III) release test in simulated human gastrointestinal fluids; assay type: physicochemical; conditions: Biodiss system; successively soaked in simulated gastric, proximal jejunum, late jejunum, ileum and colon fluids (FIG. 2)
Method: In a particular embodiment, the intermediate coating is selected in order to achieve a delayed and/or controlled release of the antibacterial, as measured by in vitro testing such as BioDis dissolution tester (USP III release apparatus). In this system, the dosage form is successively placed into glass tubes (filled with approx 200 mL of dissolution media) corresponding to the different sections of the gastrointestinal tract, such as described by Fotaki and Coll, in European Journal of Pharmaceutics and Biopharmaceutics 73 (2009) 115-120. This allows a good simulation of in vivo release before testing into mammals. pH, fed state and various other physiological conditions can be tested. Using the BioDis system, it is possible for those skilled in the art to finely tune the formulation to achieve a desired pre-determined delayed release. It will be understood that this method is also useful for testing any kind of drug delivery system intended to deliver the antimicrobial(s) in a desired part of the intestine.
Legend: FIG. 1: Release of azithromycine in simulated human gastrointestinal tract using a Biodis system. The azithromycin cellet formulation, coated with 35% FS30D (Batch GL-058B4), is successively soaked into simulated fluids such as gastric, proximal jejunum, late jejunum, Ileum and colon. […]

Row | Compound | elimination of enterobacteria from the colon [1] | other results
1 | gramicidin S |  | concentration causing erythrocyte lysis relative to the MIC (erythrocyte): threefold higher than the MIC
2 | CC[C@H]1OC(=O)[C@H](C)[C@@H](O[C@H]2C[C@@](C)(OC)[C@@H](O)[C@H](C)O2)[C@H](C)[C@@H](O[C@@H]2O[C@H](C)C[C@H](N(C)C)[C@H]2O)[C@](C)(O)C[C@@H](C)CN(C)[C@H](C)[C@@H](O)[C@]1(C)O [Azithromycin] | effective to eliminate Gram-negative enterobacteria from the colon | 
3 | CC[C@H]1OC(=O)[C@H](C)[C@@H](O[C@H]2C[C@@](C)(OC)[C@@H](O)[C@H](C)O2)[C@H](C)[C@@H](O[C@@H]2O[C@H](C)C[C@H](N(C)C)[C@H]2O)[C@](C)(O)C[C@@H](C)C(=O)[C@H](C)[C@@H](O)[C@]1(C)O [erythromycin] | eliminated from the lumen | 
4 | colistin |  | Release of colistin in simulated human gastrointestinal tract [2]: improves the release of colistin; also recorded: prevent from total colistin release
